According to paper PMC7828211, “LysM Receptor-Like Kinase LYK9 of Pisum Sativum L. May Regulate Plant Responses to Chitooligosaccharides Differing in Structure” (International Journal of Molecular Sciences, 2021):
Where two headings read alike, the source gives them in different places.

Tests used:
[1] = biological target: T1, PsLYK9-ECD (Lathyrus oleraceus, UniProt A0A9D5AD18); assay: microscale thermophoresis; assay type: binding; settings: 50 mM Tris pH 7.4, 10 mM MgCl2, 150 mM NaCl, 0.05% Tween 20, 25 °C; 20 nM RED-tris-NTA labelled protein; read-out: Kd, μM (±SD)
T1 construct: gene KIW84_053210; corresponds to residues 31-235), GP67 signal in vector, 6xHis tag, Sf9 cells, predicted 23 kDa, about 35 kDa on blot; RED-tris-NTA labelled
T1 sequence (A0A9D5AD18 26-230): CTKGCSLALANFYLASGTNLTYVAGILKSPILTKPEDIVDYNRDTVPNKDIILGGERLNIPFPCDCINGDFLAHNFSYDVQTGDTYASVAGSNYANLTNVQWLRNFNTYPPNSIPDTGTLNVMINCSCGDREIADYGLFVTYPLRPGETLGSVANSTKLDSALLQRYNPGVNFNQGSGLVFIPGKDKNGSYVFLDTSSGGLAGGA
Source text: microscale thermophoresis on PsLYK9-ECD

[2] = biological target: T2, PsLYR4-ECD; assay: microscale thermophoresis; assay type: binding, Pisum sativum; settings: 50 mM Tris pH 7.4, 10 mM MgCl2, 150 mM NaCl, 0.05% Tween 20, 25 °C, 20 nM RED-tris-NTA labelled protein
T2 construct: gene LYR4; corresponds to residues 8-257), GP67 signal in vector, 6xHis tag, Sf9 cells, predicted 27 kDa, about 32 kDa on blot; RED-tris-NTA labelled
Source text: microscale thermophoresis on PsLYR4-ECD

Compound | Kd [1] | Kd ([2]; read-out: Kd, μM (±SD)) | Kd ([2]; read-out: Kd)
N[C@H]1[C@H](O[C@H]2[C@H](O)[C@@H](N)[C@H](O[C@H]3[C@H](O)[C@@H](N)[C@H](O[C@H]4[C@H](O)[C@@H](N)[C@H](O[C@H]5[C@H](O)[C@@H](N)[C@H](O[C@H]6[C@H](O)[C@@H](N)C(O)O[C@@H]6CO)O[C@@H]5CO)O[C@@H]4CO)O[C@@H]3CO)O[C@@H]2CO)O[C@H](CO)[C@@H](O)[C@@H]1O (stereo partly shown) [CO6-DA] | 42 ± 23 µM | 22 ± 11 µM | 
N[C@H]1[C@H](O[C@H]2[C@H](O)[C@@H](N)[C@H](O[C@H]3[C@H](O)[C@@H](N)[C@H](O[C@H]4[C@H](O)[C@@H](N)[C@H](O[C@H]5[C@H](O)[C@@H](N)C(O)O[C@@H]5CO)O[C@@H]4CO)O[C@@H]3CO)O[C@@H]2CO)O[C@H](CO)[C@@H](O)[C@@H]1O (stereo partly shown) [CO5-DA] | 76 ± 25 µM | 45 ± 20 µM | 
CO8-DA | 26 ± 15 µM |  | 8 ± 5 µM
N[C@H]1[C@H](O[C@H]2[C@H](O)[C@@H](N)[C@H](O[C@H]3[C@H](O)[C@@H](N)[C@H](O[C@H]4[C@H](O)[C@@H](N)[C@H](O[C@H]5[C@H](O)[C@@H](N)[C@H](O[C@H]6[C@H](O)[C@@H](N)[C@H](O[C@H]7[C@H](O)[C@@H](N)C(O)O[C@@H]7CO)O[C@@H]6CO)O[C@@H]5CO)O[C@@H]4CO)O[C@@H]3CO)O[C@@H]2CO)O[C@H](CO)[C@@H](O)[C@@H]1O (stereo partly shown) [CO7-DA] | 31 ± 11 µM | 19 ± 13 µM | 

Other lines, results leading:

Kd [1] | Kd ([2]; read-out: Kd, μM (±SD)) | Kd ([2]; read-out: Kd) | Compound
2.1 ± 0.6 µM |  |  | CC(=O)N[C@H]1[C@H](O[C@H]2[C@H](O)[C@@H](NC(C)=O)C(O)O[C@@H]2CO)O[C@H](CO)[C@@H](O[C@@H]2O[C@H](CO)[C@@H](O[C@@H]3O[C@H](CO)[C@@H](O)[C@H](O)[C@H]3NC(C)=O)[C@H](O)[C@H]2NC(C)=O)[C@@H]1O (stereo partly shown) [CO4]
5 ± 1.9 µM |  |  | CC(=O)N[C@H]1[C@H](O[C@H]2[C@H](O)[C@@H](NC(C)=O)[C@H](O[C@H]3[C@H](O)[C@@H](NC(C)=O)C(O)O[C@@H]3CO)O[C@@H]2CO)O[C@H](CO)[C@@H](O[C@@H]2O[C@H](CO)[C@@H](O[C@@H]3O[C@H](CO)[C@@H](O)[C@H](O)[C@H]3NC(C)=O)[C@H](O)[C@H]2NC(C)=O)[C@@H]1O (stereo partly shown) [CO5]
